Test results as given in PMC2193020 (The Journal of Experimental Medicine, 1999).
Ends that are not written are not given here.

Experiments:
I-A^s = target: T1, I-A^s (Mus musculus, UniProt P06345+P14437); experiment: Class II peptide binding assay on purified I-A^s molecules
T1 sequence (P14437 1-233): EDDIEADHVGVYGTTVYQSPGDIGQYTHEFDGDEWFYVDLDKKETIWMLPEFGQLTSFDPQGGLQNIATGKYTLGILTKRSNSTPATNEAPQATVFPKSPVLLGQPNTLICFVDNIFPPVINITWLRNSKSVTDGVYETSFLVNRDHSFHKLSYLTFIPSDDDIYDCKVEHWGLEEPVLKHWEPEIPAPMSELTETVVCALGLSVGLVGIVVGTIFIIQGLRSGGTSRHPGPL
T1 sequence (P06345 28-263): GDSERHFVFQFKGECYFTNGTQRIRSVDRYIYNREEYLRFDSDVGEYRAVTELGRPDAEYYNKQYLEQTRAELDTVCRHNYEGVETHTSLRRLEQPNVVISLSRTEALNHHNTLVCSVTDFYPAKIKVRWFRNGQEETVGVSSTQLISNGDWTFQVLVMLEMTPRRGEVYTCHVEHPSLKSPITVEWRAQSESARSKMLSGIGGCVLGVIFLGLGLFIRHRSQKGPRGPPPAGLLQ

[1] = system: MBP autoantibodies affinity-purified from CNS lesions; conditions: autoantibodies from CNS lesions of 12 postmortem MS cases; ref [19], [21]; cited from earlier work

Row | Compound | IC50 (I-A^s) [µM] | Inhibition of autoantibody binding to MBP [1] [%]
1 | CC(C)C[C@H](NC(=O)[C@H](CCCNC(=N)N)NC(=O)[C@H](CCCNC(=N)N)NC(=O)CNC(=O)CN)C(=O)N[C@@H](Cc1ccccc1)C(=O)N[C@@H](Cc1ccccc1)C(=O)N[C@H](C(=O)N[C@@H](CCCCN)C(=O)N[C@@H](C)C(=O)N[C@@H](Cc1c[nH]cn1)C(=O)N[C@H](C(=O)N[C@@H](CCCNC(=N)N)C(=O)N[C@@H](CCC(=O)O)C(=O)O)C(C)C)C(C)C [Herpes simplex DNA pol] | 0.551 | –
2 | CC[C@H](C)[C@H](NC(=O)[C@H](CC(N)=O)NC(=O)[C@H](CCCCN)NC(=O)[C@H](Cc1ccccc1)NC(=O)[C@H](Cc1ccccc1)NC(=O)[C@H](Cc1c[nH]cn1)NC(=O)[C@@H](NC(=O)[C@@H](NC(=O)[C@@H]1CCCN1C(=O)[C@H](CC(N)=O)NC(=O)[C@@H](N)CCC(=O)O)C(C)C)C(C)C)C(=O)N[C@H](C(=O)N[C@H](C(=O)N1CCC[C@H]1C(=O)N[C@@H](CCCNC(=N)N)C(=O)O)[C@@H](C)O)C(C)C [MBPp85–99, reference compound] | 0.667 | –
3 | IGGRVHFFKDISPIA [HPV 7] | 0.208 | –
4 | IGGRVHFFRDISPIG [HPV 40] | 0.18 | –
5 | VHFFKNIVTPRTP [MBPp87–99] | – | > 95
